The text below walks through data of patent US8344135B2, “Heterocyclic compound and use thereof” (Takeda Pharmaceutical Company Limited, priority 2007, dated 2013).

The subject of assay [1] is MEK1/2 phosphorylation (Ser217/221) in HT-29 cells. The assay is described as follows: Colon cancer cell HT-29 intracellular MEK phosphorylation inhibitory action in vitro. Format: cell-based. The following applies: Homo sapiens, 2 hr treatment, Western blot of phosphorylated MEK1/2. The procedure:
Colon Cancer Cell HT-29 Intracellular MEK Phosphorylation Inhibitory Action in vitro
A cell suspension (500 μL) of human colon cancer cell HT-29 was plated in a 48-well plate (100,000 cells/well), and the cells were cultured overnight at 37° C. in the presence of 5% CO2, treated with a test compound (250 μL/well) diluted in 3-fold dilution series and cultured for two more hours. After 2 hr, the culture medium containing the test compound was removed, and the cells were lysed with SDS sample buffer (100 μL/well) and heated at 95° C. for 5 min. Thereafter, the cells were applied to SDS-PAGE, and the protein was transferred onto Sequi-Blot™ PVDF Membrane (Bio-Rad) by the Western blot method. The cells were blocked with a block-Ace solution (Snow Brand Milk Products Co., Ltd) dissolved in phosphate buffer to 5% W/V, and reacted overnight with anti-phosphorylated MEK1/2 (Ser217/221) (Cell signaling #9121) diluted 1000-fold with phosphate buffer containing 0.4% block-Ace. The membrane was washed with phosphate buffer containing 0.1% Tween 20 (Wako Pure Chemical Industries, Ltd.), and reacted at room temperature for 1 hr with HRP labeled rabbit IgG polyclonal antibody (Cell signaling #7074) diluted 1000-fold with phosphate buffer containing 0.4% block-Ace. The membrane was washed in the same manner as above, chemical luminescence of a phosphorylated MEK1/2 protein labeled with the antibody, which was caused by ECL-plus Detection Reagent (Amersham bioscience), was detected by Luminescent Image Analyzer LAS-1000 (FUJIFILM Corporation).
In general terms: In western blotting, separated proteins are transferred to a membrane and probed.

Assay [2] addresses T1, BRAF (V600E) (Homo sapiens, UniProt P15056, V600E).
T1 construct: area encoding the BRAF kinase domain region, so that the protein contains an N-terminal Flag; made in house; host or cells: SF-21 insect cells infected with recombinant baculovirus BAC-V600E
Description: Determination of BRAF (V600E) kinase inhibitory activity. Format: biochemical. The following applies: test compound 1.0 μM; substrate GST-MEK1 (K96R); [γ-32P]ATP; read-out: Inhibitory rate (%) at 1.0 μM. The procedure:
Determination of BRAF (V600E) Kinase Inhibitory Activity
A test compound (2.5 μL) dissolved in dimethyl sulfoxide (DMSO) was added to 37.5 μL of a reaction solution (25 mM HEPES (pH 7.5), 10 mM magnesium acetate, 1 mM dithiothreitol) containing BRAF (V600E) enzyme (30 ng) and recombinant type protein GST-MEK1 (K96R) 250 ng, and the mixture was incubated at room temperature for 10 min. ATP solution (10 μL, 2.5 μM ATP, 0.1 μCi [γ-^32P]ATP) was added to the obtained mixture, and the mixture was reacted at room temperature for 20 min. The reaction was quenched by adding 50 μL of ice-cooled 20% trichloroacetic acid (Wako Pure Chemical Industries, Ltd.). The reaction solution was allowed to stand at 4° C. for 30 min, and the acid-precipitable fraction was transferred to GF/C filter plate (Millipore Corporation) using cell harvester (PerkinElmer). The plate was dried at 45° C. for 60 min, and 40 μL of MicroScinti 0 (PerkinElmer) was added thereto. The radioactivity was measured using TopCount (PerkinElmer). The kinase inhibitory rate (%) of the test compound was calculated by the following formula: Inhibitory rate (%)=(1−(count of test compound−blank)÷(control−blank))×100
The count of the solution reacted without addition of the compound was used as a “control”, and the count of the solution without the compound and enzyme was used as a “blank”.

T1 sequence (P15056 457-717 V600E limits assumed): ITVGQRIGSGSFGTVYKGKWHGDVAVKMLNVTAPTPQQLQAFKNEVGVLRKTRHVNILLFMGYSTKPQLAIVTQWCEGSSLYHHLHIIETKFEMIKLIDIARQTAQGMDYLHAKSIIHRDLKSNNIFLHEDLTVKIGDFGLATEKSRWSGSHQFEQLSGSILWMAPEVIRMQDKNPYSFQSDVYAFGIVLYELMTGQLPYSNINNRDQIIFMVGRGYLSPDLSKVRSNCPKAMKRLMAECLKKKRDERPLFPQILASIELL

The IC50 is the concentration that gives 50% inhibition. Read a low IC50 as greater potency. In assay [1], `COc1ccc(NC(=O)c2cccc(C3(C#N)CC3)c2)cc1Oc1ccc2nc(NC(=O)CN3CCN(C)CC3)sc2n1` [Example C2, 3-(1-cyanocyclopropyl)-N-{4-methoxy-3-[(2-{[(4-methylpiperazin-1-yl)acetyl]amino}[1,3]thiazolo[5,4-b]pyridin-5-yl)oxy]phenyl}benzamide] yielded an IC50 of less than 500 nM. Still for that read-out and setting: the value for `Cc1ccc(NC(=O)c2cccc(C(F)(F)F)c2)cc1Oc1ccc2nc(NC(=O)CO)sc2n1` [Example C9, N-(3-{[2-(glycoloylamino)[1,3]thiazolo[5,4-b]pyridin-5-yl]oxy}-4-methylphenyl)-3-(trifluoromethyl)benzamide] was less than 500 nM; that for `Cc1ccc(NC(=O)c2cccc(C(F)(F)F)c2)cc1Oc1ccc2nc(NC(=O)CN3CCN(C)CC3)sc2n1` [Example C11, N-{4-methyl-3-[(2-{[(4-methylpiperazin-1-yl)acetyl]amino}[1,3]thiazolo[5,4-b]pyridin-5-yl)oxy]phenyl}-3-(trifluoromethyl)benzamide] was less than 500 nM; that for `Cc1ccc(NC(=O)c2cccc(C(C)(C)C#N)c2)cc1Oc1ccc2nc(NC(=O)CO)sc2n1` [Example C13, 3-(1-cyano-1-methylethyl)-N-(3-{[2-(glycoloylamino)[1,3]thiazolo[5,4-b]pyridin-5-yl]oxy}-4-methylphenyl)benzamide] was less than 500 nM. Still for that read-out and setting: the value for `Cc1ccc(NC(=O)c2cccc(C3(C#N)CC3)c2)cc1Oc1ccc2nc(NC(=O)C3CC3)sc2n1` [Example C16, 3-(1-cyanocyclopropyl)-N-[3-({2-[(cyclopropylcarbonyl)amino][1,3]thiazolo[5,4-b]pyridin-5-yl}oxy)-4-methylphenyl]benzamide] was less than 500 nM; that for `N#CC1(c2cccc(C(=O)Nc3cccc(Oc4ccc5nc(NC(=O)C6CC6)sc5n4)c3)c2)CC1` [Example C26, 3-(1-cyanocyclopropyl)-N-[3-({2-[(cyclopropylcarbonyl)amino][1,3]thiazolo[5,4-b]pyridin-5-yl}oxy)phenyl]benzamide] was less than 500 nM; that for `Cc1ccc(Oc2ccc3nc(NC(=O)CN4CCN(C)CC4)sc3n2)cc1NC(=O)c1cccc(C(C)(C)C#N)c1` [Example C35, 3-(1-cyano-1-methylethyl)-N-{2-methyl-5-[(2-{[(4-methylpiperazin-1-yl)acetyl]amino}[1,3]thiazolo[5,4-b]pyridin-5-yl)oxy]phenyl}benzamide] was less than 500 nM. The molecule `CN(c1cccc(NC(=O)c2cccc(C(F)(F)F)c2)c1)c1ccc2nc(NC(=O)C3CC3)sc2n1` [Example C40, N-{3-[{2-[(cyclopropylcarbonyl)amino][1,3]thiazolo[5,4-b]pyridin-5-yl}(methyl)amino]phenyl}-3-(trifluoromethyl)benzamide] registered an IC50 in assay [1] of less than 500 nM.

Take `O=C(Nc1cccc(Nc2ccc3nc(NC(=O)C4CC4)sc3n2)c1)c1cccc(C(F)(F)F)c1` [Example C41, N-[3-({2-[(cyclopropylcarbonyl)amino][1,3]thiazolo[5,4-b]pyridin-5-yl}amino)phenyl]-3-(trifluoromethyl)benzamide]: in assay [2], the inhibition at 1 µM was 100%.

As to `CN1CCN(CC(=O)Nc2nc3ccc(Oc4cc(NC(=O)c5cccc(C(C)(C)C#N)c5)ccc4Cl)nc3s2)CC1` [Example C51], the IC50 in assay [1] is less than 500 nM. Turning to `CC(C)(C#N)c1cccc(C(=O)Nc2cc(Oc3ccc4nc(NC(=O)C5CC5)sc4n3)c(Cl)cc2F)c1` [Example C60, N-[4-chloro-5-({2-[(cyclopropylcarbonyl)amino][1,3]thiazolo[5,4-b]pyridin-5-yl}oxy)-2-fluorophenyl]-3-(1-cyano-1-methylethyl)benzamide], in assay [2], the inhibition at 1 µM was found to be 100%.

Regarding `CC(C)(C#N)c1cccc(C(=O)Nc2cc(Oc3ccc4nc(NC(=O)C5CC5)sc4n3)ccc2F)c1Cl` [Example C63, 2-chloro-3-(1-cyano-1-methylethyl)-N-[5-({2-[(cyclopropylcarbonyl)amino][1,3]thiazolo[5,4-b]pyridin-5-yl}oxy)-2-fluorophenyl]benzamide], in assay [2], the inhibition at 1 µM amounted to 101%. Molecule `CC(=O)Nc1nc2ccc(Oc3ccc(F)c(NC(=O)c4cccc(C5(C#N)CC5)c4Cl)c3)nc2s1` [Example C65, N-(5-{[2-(acetylamino)[1,3]thiazolo[5,4-b]pyridin-5-yl]oxy}-2-fluorophenyl)-2-chloro-3-(1-cyanocyclopropyl)benzamide] came in with an IC50 in assay [1] of less than 500 nM. For the molecule `N#CC1(c2cccc(C(=O)Nc3cc(Oc4ccc5nc(NC(=O)C6CC6)sc5n4)c(F)cc3F)c2Cl)CC1` [Example C75, 2-chloro-3-(1-cyanocyclopropyl)-N-[5-({2-[(cyclopropylcarbonyl)amino][1,3]thiazolo[5,4-b]pyridin-5-yl}oxy)-2,4-difluorophenyl]benzamide], the inhibition at 1 µM in assay [2] is 100%.

`Cc1ccc(NC(=O)c2cccc(C(C)(C)C#N)c2)cc1Oc1ccc2nc(NC(=O)/C=C/c3ccc(Cl)cc3)sc2n1` [Example C99, N-{3-[(2-{[(2E)-3-(4-chlorophenyl)prop-2-enoyl]amino}[1,3]thiazolo[5,4-b]pyridin-5-yl)oxy]-4-methylphenyl}-3-(1-cyano-1-methylethyl)benzamide] gave an IC50 in assay [1] of less than 500 nM.

As for `CC(=O)Nc1nc2cnc(N(C)c3cccc(NC(=O)c4cccc(C(F)(F)F)c4)c3)nc2s1` [Example D1, N-{3-[[2-(acetylamino)[1,3]thiazolo[5,4-d]pyrimidin-5-yl](methyl)amino]phenyl}-3-(trifluoromethyl)benzamide], the inhibition at 1 µM in assay [2] turned out to be 98%. Regarding `CN(c1cccc(NC(=O)c2cccc(C(F)(F)F)c2)c1)c1ncc2nc(NC(=O)C3CC3)sc2n1` [Example D2, N-{3-[{2-[(cyclopropylcarbonyl)amino][1,3]thiazolo[5,4-d]pyrimidin-5-yl}(methyl)amino]phenyl}-3-(trifluoromethyl)benzamide], the IC50 in assay [1] was less than 500 nM.
